ChEMBL document CHEMBL3991601, “The target landscape of clinical kinase drugs” (Science, 2017)
Active and inactive are the calls of the source.

Experiments:
[1] = target: MAP kinase-activated protein kinase 3 (Homo sapiens, UniProt Q16644)
[2] = target: T1, Cyclin-dependent kinase-like 5 (Homo sapiens, UniProt O76039)
T1 sequence (O76039 whole entry): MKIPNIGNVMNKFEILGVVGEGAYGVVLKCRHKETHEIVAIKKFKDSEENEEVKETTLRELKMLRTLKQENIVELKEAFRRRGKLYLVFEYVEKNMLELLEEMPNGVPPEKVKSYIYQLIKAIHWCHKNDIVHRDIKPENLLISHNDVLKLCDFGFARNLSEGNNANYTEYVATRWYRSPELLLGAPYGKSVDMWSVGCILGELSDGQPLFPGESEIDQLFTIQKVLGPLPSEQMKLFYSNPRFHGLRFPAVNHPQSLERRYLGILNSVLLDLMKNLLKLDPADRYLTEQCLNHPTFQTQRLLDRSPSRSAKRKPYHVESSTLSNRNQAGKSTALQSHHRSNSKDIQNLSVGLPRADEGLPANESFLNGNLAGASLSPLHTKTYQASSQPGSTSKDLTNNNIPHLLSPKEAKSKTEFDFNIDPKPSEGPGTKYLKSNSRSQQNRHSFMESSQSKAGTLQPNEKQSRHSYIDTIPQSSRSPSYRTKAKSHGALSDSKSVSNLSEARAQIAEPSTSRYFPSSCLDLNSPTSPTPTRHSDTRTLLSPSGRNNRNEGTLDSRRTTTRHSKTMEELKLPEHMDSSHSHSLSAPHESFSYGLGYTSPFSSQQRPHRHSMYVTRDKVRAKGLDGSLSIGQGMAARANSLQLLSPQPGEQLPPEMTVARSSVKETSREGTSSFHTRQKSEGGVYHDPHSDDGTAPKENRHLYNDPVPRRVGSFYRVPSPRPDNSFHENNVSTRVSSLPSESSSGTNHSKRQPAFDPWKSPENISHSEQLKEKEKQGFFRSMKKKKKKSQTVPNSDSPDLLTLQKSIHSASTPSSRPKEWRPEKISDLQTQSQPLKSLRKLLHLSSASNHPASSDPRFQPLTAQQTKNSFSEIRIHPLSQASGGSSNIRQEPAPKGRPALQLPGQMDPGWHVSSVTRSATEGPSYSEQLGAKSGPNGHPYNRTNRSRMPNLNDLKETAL

[3] = target: Misshapen-like kinase 1 (Homo sapiens, UniProt Q8N4C8)
Chain of Misshapen-like kinase 1 (Q8N4C8 whole entry): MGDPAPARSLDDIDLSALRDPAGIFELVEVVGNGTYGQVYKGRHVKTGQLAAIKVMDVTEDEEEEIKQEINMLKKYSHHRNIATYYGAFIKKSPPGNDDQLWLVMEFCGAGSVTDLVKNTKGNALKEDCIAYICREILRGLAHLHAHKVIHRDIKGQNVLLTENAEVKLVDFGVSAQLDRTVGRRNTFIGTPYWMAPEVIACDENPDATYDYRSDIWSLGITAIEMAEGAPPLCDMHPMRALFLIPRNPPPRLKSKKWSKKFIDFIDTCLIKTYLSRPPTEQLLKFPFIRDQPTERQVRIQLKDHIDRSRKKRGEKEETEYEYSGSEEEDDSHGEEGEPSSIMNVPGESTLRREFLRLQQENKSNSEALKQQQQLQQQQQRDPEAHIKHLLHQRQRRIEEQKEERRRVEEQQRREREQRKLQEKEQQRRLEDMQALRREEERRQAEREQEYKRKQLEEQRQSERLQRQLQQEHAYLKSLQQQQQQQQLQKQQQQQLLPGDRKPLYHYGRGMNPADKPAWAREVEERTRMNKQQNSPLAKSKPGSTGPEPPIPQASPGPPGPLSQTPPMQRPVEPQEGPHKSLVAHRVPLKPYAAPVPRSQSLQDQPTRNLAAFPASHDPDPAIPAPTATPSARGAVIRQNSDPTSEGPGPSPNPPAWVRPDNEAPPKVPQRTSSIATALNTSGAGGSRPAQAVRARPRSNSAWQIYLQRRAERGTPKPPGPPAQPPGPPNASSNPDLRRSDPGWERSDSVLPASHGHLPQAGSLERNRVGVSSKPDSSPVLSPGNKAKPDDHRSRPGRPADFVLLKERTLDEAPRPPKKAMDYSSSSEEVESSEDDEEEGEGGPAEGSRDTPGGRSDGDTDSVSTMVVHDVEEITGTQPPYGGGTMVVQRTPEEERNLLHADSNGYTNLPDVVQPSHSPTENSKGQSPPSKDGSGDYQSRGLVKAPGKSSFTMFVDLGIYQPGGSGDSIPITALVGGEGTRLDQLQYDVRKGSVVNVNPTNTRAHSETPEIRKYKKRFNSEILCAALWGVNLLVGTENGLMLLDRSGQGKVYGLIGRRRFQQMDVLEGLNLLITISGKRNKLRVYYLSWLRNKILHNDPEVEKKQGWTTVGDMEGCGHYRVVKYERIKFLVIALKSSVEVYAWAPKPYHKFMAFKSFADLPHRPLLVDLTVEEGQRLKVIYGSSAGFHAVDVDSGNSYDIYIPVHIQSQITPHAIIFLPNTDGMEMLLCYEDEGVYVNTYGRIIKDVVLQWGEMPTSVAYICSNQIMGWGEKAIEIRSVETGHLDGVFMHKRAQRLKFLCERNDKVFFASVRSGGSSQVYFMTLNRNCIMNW

[4] = target: Cell division cycle 7-related protein kinase (Homo sapiens, UniProt O00311)
Chain of Cell division cycle 7-related protein kinase (O00311 whole entry): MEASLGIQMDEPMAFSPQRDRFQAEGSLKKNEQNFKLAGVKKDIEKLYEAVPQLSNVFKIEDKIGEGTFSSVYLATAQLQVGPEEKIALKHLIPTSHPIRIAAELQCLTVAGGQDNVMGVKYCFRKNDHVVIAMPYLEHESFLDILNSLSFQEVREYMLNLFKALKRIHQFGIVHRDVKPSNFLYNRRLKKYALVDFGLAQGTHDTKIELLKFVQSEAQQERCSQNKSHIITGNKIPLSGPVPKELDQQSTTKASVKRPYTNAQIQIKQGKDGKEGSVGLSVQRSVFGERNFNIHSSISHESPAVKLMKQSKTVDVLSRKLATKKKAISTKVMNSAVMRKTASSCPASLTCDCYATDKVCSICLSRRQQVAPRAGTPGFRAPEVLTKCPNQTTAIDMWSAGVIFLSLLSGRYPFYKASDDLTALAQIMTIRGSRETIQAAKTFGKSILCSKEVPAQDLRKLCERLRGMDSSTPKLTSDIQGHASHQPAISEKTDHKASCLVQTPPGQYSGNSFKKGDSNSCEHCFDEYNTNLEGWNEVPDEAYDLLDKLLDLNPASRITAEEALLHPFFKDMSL

[5] = target: Serine/threonine-protein kinase PAK 6 (Homo sapiens, UniProt Q9NQU5)
Chain of Serine/threonine-protein kinase PAK 6 (Q9NQU5 whole entry): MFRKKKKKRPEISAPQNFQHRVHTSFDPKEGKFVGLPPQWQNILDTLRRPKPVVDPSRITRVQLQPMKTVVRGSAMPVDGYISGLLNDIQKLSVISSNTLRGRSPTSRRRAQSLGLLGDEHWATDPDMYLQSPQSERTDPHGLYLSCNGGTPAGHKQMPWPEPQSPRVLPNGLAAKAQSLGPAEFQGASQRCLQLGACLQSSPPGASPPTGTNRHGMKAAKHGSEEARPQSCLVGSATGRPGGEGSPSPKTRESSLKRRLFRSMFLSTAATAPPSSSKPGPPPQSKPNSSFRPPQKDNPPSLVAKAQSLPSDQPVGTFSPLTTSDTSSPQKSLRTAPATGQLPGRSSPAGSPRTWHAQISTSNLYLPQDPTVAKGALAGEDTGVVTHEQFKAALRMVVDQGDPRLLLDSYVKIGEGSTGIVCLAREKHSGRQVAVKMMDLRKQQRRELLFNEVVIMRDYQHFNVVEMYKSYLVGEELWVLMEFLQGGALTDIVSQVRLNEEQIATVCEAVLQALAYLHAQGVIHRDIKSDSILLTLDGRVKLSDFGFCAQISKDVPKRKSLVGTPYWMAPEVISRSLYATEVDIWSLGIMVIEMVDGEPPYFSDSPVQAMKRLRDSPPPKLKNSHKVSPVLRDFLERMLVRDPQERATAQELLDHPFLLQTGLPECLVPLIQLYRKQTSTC

[6] = target: T2, Dual specificity protein kinase TTK (Homo sapiens, UniProt P33981)
T2 sequence (P33981 whole entry): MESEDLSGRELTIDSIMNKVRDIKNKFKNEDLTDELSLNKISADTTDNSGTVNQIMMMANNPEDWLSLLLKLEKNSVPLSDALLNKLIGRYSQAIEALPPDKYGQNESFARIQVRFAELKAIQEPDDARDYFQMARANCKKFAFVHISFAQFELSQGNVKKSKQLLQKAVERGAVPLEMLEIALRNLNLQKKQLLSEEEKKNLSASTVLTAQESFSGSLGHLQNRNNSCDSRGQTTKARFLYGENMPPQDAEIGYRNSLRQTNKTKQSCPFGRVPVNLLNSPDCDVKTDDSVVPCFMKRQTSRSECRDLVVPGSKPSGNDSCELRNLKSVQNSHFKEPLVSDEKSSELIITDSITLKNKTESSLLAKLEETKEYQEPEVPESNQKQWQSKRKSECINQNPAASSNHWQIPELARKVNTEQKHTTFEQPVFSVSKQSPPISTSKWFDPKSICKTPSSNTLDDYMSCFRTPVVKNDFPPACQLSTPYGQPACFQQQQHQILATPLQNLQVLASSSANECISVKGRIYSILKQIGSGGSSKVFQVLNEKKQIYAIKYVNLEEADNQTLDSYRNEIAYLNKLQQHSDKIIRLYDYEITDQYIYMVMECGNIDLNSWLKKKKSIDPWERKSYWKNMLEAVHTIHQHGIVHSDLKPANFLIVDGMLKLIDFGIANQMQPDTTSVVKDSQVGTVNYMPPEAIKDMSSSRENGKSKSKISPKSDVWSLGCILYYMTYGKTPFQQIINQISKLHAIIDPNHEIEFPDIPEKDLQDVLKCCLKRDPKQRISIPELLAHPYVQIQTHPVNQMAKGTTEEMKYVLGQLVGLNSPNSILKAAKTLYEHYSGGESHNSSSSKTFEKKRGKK

[7] = target: T3, Dual specificity mitogen-activated protein kinase kinase 4 (Homo sapiens, UniProt P45985)
T3 sequence (P45985 whole entry): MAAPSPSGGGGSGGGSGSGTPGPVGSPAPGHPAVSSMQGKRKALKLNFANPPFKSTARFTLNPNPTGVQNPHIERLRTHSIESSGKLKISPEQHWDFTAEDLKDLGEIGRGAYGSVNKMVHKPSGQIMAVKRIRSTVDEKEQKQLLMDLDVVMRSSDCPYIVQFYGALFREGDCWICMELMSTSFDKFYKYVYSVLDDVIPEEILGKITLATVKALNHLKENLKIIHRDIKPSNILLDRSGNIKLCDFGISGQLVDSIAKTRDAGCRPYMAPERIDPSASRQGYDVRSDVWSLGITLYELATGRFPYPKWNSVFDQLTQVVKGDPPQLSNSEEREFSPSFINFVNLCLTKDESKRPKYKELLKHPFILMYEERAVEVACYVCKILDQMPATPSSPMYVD

Measured: Kd
Also: in the data inactive means no Kd found up to 30 µM.

Chain of MAP kinase-activated protein kinase 3 (Q16644 whole entry): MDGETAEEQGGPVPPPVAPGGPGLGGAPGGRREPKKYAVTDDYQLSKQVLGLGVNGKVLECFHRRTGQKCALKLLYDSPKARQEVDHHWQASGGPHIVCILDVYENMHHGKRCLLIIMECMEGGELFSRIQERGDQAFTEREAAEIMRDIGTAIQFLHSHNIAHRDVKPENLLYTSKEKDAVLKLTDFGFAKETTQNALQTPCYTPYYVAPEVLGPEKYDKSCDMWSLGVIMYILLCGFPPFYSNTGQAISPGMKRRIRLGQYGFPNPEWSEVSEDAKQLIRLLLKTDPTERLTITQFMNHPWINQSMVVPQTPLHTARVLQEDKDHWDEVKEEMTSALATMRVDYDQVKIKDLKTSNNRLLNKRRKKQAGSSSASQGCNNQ

CC(C)(C)c1nc(-c2cccc(NS(=O)(=O)c3c(F)cccc3F)c2F)c(-c2ccnc(N)n2)s1 [DABRAFENIB]
inactive: [1] > 30 µM | [2] > 30 µM | [3] > 30 µM | [4] > 30 µM | [5] > 30 µM | [6] > 30 µM | [7] > 30 µM

COc1cc2ncnc(Oc3cccc(NC(=O)Nc4cc(C(C)(C)C(F)(F)F)on4)c3)c2cc1OC [CEP-32496]
inactive: [1] > 30 µM | [3] > 30 µM | [4] > 30 µM | [6] > 30 µM | [7] > 30 µM

CO[C@H]1C[C@@H]2CC[C@@H](C)[C@@](O)(O2)C(=O)C(=O)N2CCCC[C@H]2C(=O)O[C@H]([C@H](C)C[C@@H]2CC[C@@H](OC(=O)C(C)(CO)CO)[C@H](OC)C2)CC(=O)[C@H](C)/C=C(\C)[C@@H](O)[C@@H](OC)C(=O)[C@H](C)C[C@H](C)/C=C/C=C/C=C/1C [TEMSIROLIMUS]
inactive: [1] > 30 µM | [2] > 30 µM | [3] > 30 µM | [4] > 30 µM | [5] > 30 µM | [6] > 30 µM | [7] > 30 µM

CCOc1cc2ncc(C#N)c(Nc3ccc(F)c(Cl)c3)c2cc1NC(=O)/C=C/CN(C)C [PELITINIB]
inactive: [1] > 30 µM | [3] > 30 µM | [4] > 30 µM | [5] > 30 µM | [6] > 30 µM | [7] > 30 µM
